Holding throughout (format): in vivo
Experiment [1] has as its system Beet Armyworm (BAW) (Spodoptera exigua). The experiment is described as follows: Bioassay on beet armyworm (BAW), 128-well diet tray assay, percent mortality. Particulars: for pest or weed control at 50 µg/cm2, 50 µg/cm2: Spodoptera exigua, 50 μg/cm^2. The procedure: (§1) Certain molecules disclosed in this document were tested against BAW and CEW using procedures described in the following examples. In the reporting of the results, the “BAW & CEW Rating Table” was used (See Table Section).
Bioassays on BAW (Spodoptera exigua)
Bioassays on BAW were conducted using a 128-well diet tray assay. One to five second instar BAW larvae were placed in each well (3 mL) of the diet tray that had been previously filled with 1 mL of artificial diet to which 50 μg/cm^2 of the test compound (dissolved in 50 μL of 90:10 acetone-water mixture) had been applied (to each of eight wells) and then allowed to dry. Trays were covered with a clear self-adhesive cover and held at 25° C., 14:10 light-dark for five to seven days. Percent mortality was recorded for the larvae in each well; activity in the eight wells was then averaged. The results are indicated in the table entitled “Table 5: Biological Results” (See Table Section).

For experiment [2], the system named is Corn Earworm (CEW) (Helicoverpa zea). The experiment is described as follows: Bioassay on corn earworm (CEW), 128-well diet tray assay, percent mortality. Particulars: for pest or weed control at 50 µg/cm2, 50 µg/cm2: Helicoverpa zea, 50 μg/cm^2. The method, then: as §1
Bioassays on CEW (Helicoverpa zea)
Bioassays on CEW were conducted using a 128-well diet tray assay. One to five second instar CEW larvae were placed in each well (3 mL) of the diet tray that had been previously filled with 1 mL of artificial diet to which 50 μg/cm^2 of the test compound (dissolved in 50 μL of 90:10 acetone-water mixture) had been applied (to each of eight wells) and then allowed to dry. Trays were covered with a clear self-adhesive cover and held at 25° C., 14:10 light-dark for five to seven days. Percent mortality was recorded for the larvae in each well; activity in the eight wells was then averaged. The results are indicated in the table entitled “Table 5: Biological Results” (See Table Section).

Experiment [3] relates to Green Peach Aphid (GPA) (Myzus persicae). The experiment is described as follows: Bioassay on green peach aphid (GPA), foliar spray on cabbage seedlings, corrected % control. To be noted: 72 h, read-out: % Mortality GPA 200 ppm. The method, then: Certain molecules disclosed in this document were tested against GPA using procedures described in the following example. In the reporting of the results, the “GPA Rating Table” was used (See Table Section).
Cabbage seedlings grown in 3-inch pots, with 2-3 small (3-5 cm) true leaves, were used as test substrate. The seedlings were infested with 20-50 GPA (wingless adult and nymph stages) one day prior to chemical application. Four pots with individual seedlings were used for each treatment. Test compounds (2 mg) were dissolved in 2 mL of acetone/methanol (1:1) solvent, forming stock solutions of 1000 ppm test compound. […] A hand-held aspirator-type sprayer was used for spraying a solution to both sides of […] leaves until runoff. Reference plants (solvent check) were sprayed with the diluent only containing 20% by volume of acetone/methanol (1:1) solvent. Treated plants were held in a holding room for three days at approximately 25° C. and ambient relative humidity (RH) prior to grading. Evaluation was conducted by counting the number of live aphids per plant under a microscope.
Corrected % Control=100*(X−Y)/X • where • X=No. of live aphids on solvent check plants and • Y=No. of live aphids on treated plants
The results are indicated in the table entitled “Table 5: Biological Results” (See Table Section).

Consider `CC(C)c1ccccc1N1C(=NN=Cc2ccc(-c3ncn(-c4ccc(OC(F)(F)F)cc4)n3)cc2)SCC1(O)C(F)(F)F` (stereo in doubt) [Compound 246C, (Z)-3-(2-isopropylphenyl)-2-((E)-(4-(1-(4-(trifluoromethoxy)phenyl)-1H-1,2,4-triazol-3-yl)benzylidene)hydrazono)-4-(trifluoromethyl)thiazolidin-4-ol], for which the pest or weed control at 50 µg/cm2, 50 µg/cm2 in experiment [1] and in experiment [2] was 50 to 100% throughout.

Take `CC(C)c1cccc(F)c1N1/C(=N/N=C/c2ccc(-c3ncn(-c4ccc(OC(F)(F)F)cc4)n3)cc2)SCC1(C)O` (stereo not drawn) [Compound 250C]: the pest or weed control at 50 µg/cm2, 50 µg/cm2 in experiment [1] and in experiment [2] was 50 to 100% each time. Further, in experiment [3], the pest or weed control at 200 ppm fell in the range of 0 to 80%.

Turning to `Cc1ccc(C(C)C)c(N2/C(=N/N=C/c3ccc(-c4ncn(-c5ccc(OC(F)(F)F)cc5)n4)cc3)SCC2(C)O)c1` (stereo not drawn) [Compound 253C], the pest or weed control at 50 µg/cm2, 50 µg/cm2 in experiment [1] and in experiment [2] was 50 to 100% in each case.

On to `CC1S/C(=N\N=C\c2ccc(-c3ncn(-c4ccc(OC(F)(F)F)cc4)n3)cc2)N(c2c(F)cccc2Cl)C1=O` (stereo not drawn) [Compound 130C], for which the pest or weed control at 50 µg/cm2, 50 µg/cm2 in experiment [1] and in experiment [2] was 50 to 100% in each case.

As for `Cc1cccc(N2/C(=N/N=C/c3ccc(-c4ncn(-c5ccc(OC(F)(F)F)cc5)n4)cc3)SCC2(C)O)c1C(C)C` (stereo not drawn) [Compound 252C], the pest or weed control at 50 µg/cm2, 50 µg/cm2 in experiment [1] and in experiment [2] was 50 to 100% each time.

On to `CC(C)c1ccccc1N1/C(=N/N=C/c2ccc(-c3ncn(-c4ccc(OC(F)(F)F)cc4)n3)cc2)SCC1(O)c1ccccc1C(F)(F)F` (stereo not drawn) [Compound 263C], for which the pest or weed control at 50 µg/cm2, 50 µg/cm2 in experiment [1] and in experiment [2] was 50 to 100% in each case. Also, the pest or weed control at 200 ppm in experiment [3] was in the range of 0 to 80%.

`CC(C)c1ccccc1N1/C(=N/N=C/c2ccc(-c3ncn(-c4ccc(C(F)(F)F)cc4)n3)cc2)SCC1(C)O` (stereo not drawn) [Compound 261C]: the pest or weed control at 50 µg/cm2, 50 µg/cm2 in experiment [1] and in experiment [2] was 50 to 100% throughout.

`COCCOC(C)C(=O)OCS/C(=N\c1c(C)cccc1C)N/N=C/c1ccc(-c2ncn(-c3ccc(OC(F)(F)F)cc3)n2)cc1` (stereo not drawn) [Compound 41C]: the pest or weed control at 50 µg/cm2, 50 µg/cm2 in experiment [1] and in experiment [2] was 50 to 100% each time.

Turning to `COc1ccc(N2C(=O)CS/C2=N\N=C\c2ccc(-c3ncn(-c4ccc(OC(F)(F)F)cc4)n3)cc2)cc1` [Compound 114C], the pest or weed control at 50 µg/cm2, 50 µg/cm2 in experiment [1] and in experiment [2] was 50 to 100% throughout.

In the case of `Cc1ccc(N2/C(=N/N=C/c3ccc(-c4ncn(-c5ccc(OC(F)(F)F)cc5)n4)cc3)SCC2(C)O)c(C(C)C)c1` (stereo not drawn) [Compound 251C], the pest or weed control at 50 µg/cm2, 50 µg/cm2 in experiment [1] and in experiment [2] was 50 to 100% in each case. In addition, in experiment [3], the pest or weed control at 200 ppm was in the range of 0 to 80%.

In the case of `CC1(O)CS/C(=N\N=C\c2ccc(-c3ncn(-c4ccc(OC(F)(F)F)cc4)n3)cc2)N1c1ccccc1C1CCCC1` (stereo not drawn) [Compound 249C], the pest or weed control at 50 µg/cm2, 50 µg/cm2 in experiment [1] and in experiment [2] was 50 to 100% throughout.

With `COc1cc(C)c(N2/C(=N/N=C/c3ccc(-c4ncn(-c5ccc(OC(F)(F)F)cc5)n4)cc3)SCC2(C)O)c(C)c1` (stereo not drawn) [Compound 255C], the pest or weed control at 50 µg/cm2, 50 µg/cm2 in experiment [1] and in experiment [2] was 50 to 100% in each case.

Take `Cc1ccccc1-n1c(C)cs/c1=N\N=C\c1ccc(-c2ncn(-c3ccc(OC(F)(F)F)cc3)n2)cc1` [Compound 173C]: the pest or weed control at 50 µg/cm2, 50 µg/cm2 in experiment [1] and in experiment [2] was 50 to 100% in each case.

As to `COc1cc(C)c(N2C(=O)CS/C2=N\N=C\c2ccc(-c3ncn(-c4ccc(OC(F)(F)F)cc4)n3)cc2)c(C)c1` [Compound 69C], the pest or weed control at 50 µg/cm2, 50 µg/cm2 in experiment [1] and in experiment [2] was 50 to 100% throughout.

On to `CC(C)c1ccccc1N1/C(=N/N=C/c2ccc(-c3ncn(-c4ccc(OC(F)(F)F)cc4)n3)cc2)SC(C)C1(C)O` (stereo not drawn) [Compound 257C], for which the pest or weed control at 50 µg/cm2, 50 µg/cm2 in experiment [1] and in experiment [2] was 50 to 100% each time.

On to `CC(C)c1ccccc1N1CCCCC/S1=N\N=C\c1ccc(-c2ncn(-c3ccc(OC(F)(F)F)cc3)n2)cc1` (stereo not drawn) [Compound 212C], for which the pest or weed control at 50 µg/cm2, 50 µg/cm2 in experiment [1] and in experiment [2] was 50 to 100% throughout.

As to `Cc1cccc(C)c1/N=C(/N/N=C/c1ccc(-c2ncn(-c3ccc(OC(F)(F)F)cc3)n2)cc1)SCC#C[Si](C)(C)C` [Compound 9C], the “% Mortality BAW 50 μg/cm^2” value in experiment [1] is “A (50-100)”. In experiment [2], the “% Mortality CEW 50 μg/cm^2” value is “A (50-100)”.

Take `CCN(CC)c1ccc(-c2cs/c(=N\N=Cc3ccc(-c4ncn(-c5ccc(OC(F)(F)F)cc5)n4)cc3)n2-c2c(C)cccc2C)cc1` [Compound 74C, 4-((2Z)-3-(2,6-dimethylphenyl)-2-((4-(1-(4-(trifluoromethoxy)phenyl)-1H-1,2,4-triazol-3-yl)benzylidene)hydrazono)-2,3-dihydrothiazol-4-yl)-N,N-diethylaniline]: the pest or weed control at 50 µg/cm2, 50 µg/cm2 in experiment [1] and in experiment [2] was 50 to 100% each time.

On to `Cc1cccc(Cl)c1N1/C(=N/N=C/c2ccc(-c3ncn(-c4ccc(OC(F)(F)F)cc4)n3)cc2)SCC1(C)O` (stereo not drawn) [Compound 244C], for which the pest or weed control at 50 µg/cm2, 50 µg/cm2 in experiment [1] and in experiment [2] was 50 to 100% in each case.

As for `Cc1cccc(C)c1N1CCS/C1=N\N=C\c1ccc(-c2ncn(-c3ccc(OC(F)(F)F)cc3)n2)cc1` [Compound 141C], the pest or weed control at 50 µg/cm2, 50 µg/cm2 in experiment [1] and in experiment [2] was 50 to 100% in each case.

For `CC1(O)CS/C(=N\N=C\c2ccc(-c3ncn(-c4ccc(OC(F)(F)F)cc4)n3)cc2)N1c1c(F)cccc1F` (stereo not drawn) [Compound 240C], the pest or weed control at 50 µg/cm2, 50 µg/cm2 in experiment [1] and in experiment [2] was 50 to 100% in each case.

For the compound `CC1(O)CS/C(=N\c2c(Cl)cccc2C(F)(F)F)N1/N=C/c1ccc(-c2ncn(-c3ccc(OC(F)(F)F)cc3)n2)cc1` (stereo not drawn) [Compound 241C, (Z)-2-((2-chloro-6-(trifluoromethyl)phenyl)imino)-4-methyl-3-((E)-(4-(1-(4-(trifluoromethoxy)phenyl)-1H-1,2,4-triazol-3-yl)benzylidene)amino)thiazolidin-4-ol], the pest or weed control at 50 µg/cm2, 50 µg/cm2 in experiment [1] and in experiment [2] was 50 to 100% each time.

In the case of `CCC(C)c1ccccc1N1/C(=N/N=C/c2ccc(-c3ncn(-c4ccc(OC(F)(F)F)cc4)n3)cc2)SCC1(O)C(F)(F)F` (stereo not drawn) [Compound 247C], the pest or weed control at 50 µg/cm2, 50 µg/cm2 in experiment [1] and in experiment [2] was 50 to 100% throughout.

Take `CC(C)c1cc(F)c(F)cc1N1/C(=N/N=C/c2ccc(-c3ncn(-c4ccc(OC(F)(F)F)cc4)n3)cc2)SCC1(C)O` (stereo not drawn) [Compound 259C]: the pest or weed control at 50 µg/cm2, 50 µg/cm2 in experiment [1] and in experiment [2] was 50 to 100% each time.

Turning to `CCc1cc(OC)ccc1N1/C(=N/N=C/c2ccc(-c3ncn(-c4ccc(OC(F)(F)C(F)(F)F)cc4)n3)cc2)SCC1(C)O` (stereo not drawn) [Compound 264C], in experiment [1], the pest or weed control at 50 µg/cm2, 50 µg/cm2 lay within 50 to 100%.

Regarding `CC(C)c1ccccc1N1/C(=N/N=C/c2ccc(-c3ncn(-c4ccc(C(F)(C(F)(F)F)C(F)(F)F)cc4)n3)cc2)SCC1(C)O` (stereo not drawn) [Compound 260C], the pest or weed control at 50 µg/cm2, 50 µg/cm2 in experiment [1] and in experiment [2] was 50 to 100% each time.

Take `COc1cc(C)c(/N=C(/N/N=C/c2ccc(-c3ncn(-c4ccc(OC(F)(F)C(F)(F)F)cc4)n3)cc2)SCC(=O)O)c(C)c1` [Compound 50C]: the pest or weed control at 50 µg/cm2, 50 µg/cm2 in experiment [1] and in experiment [2] was 50 to 100% throughout.

For `COCCOC(C)C(=O)OCS/C(=N\c1c(C)cc(OC)cc1C)N/N=C/c1ccc(-c2ncn(-c3ccc(OC(F)(F)F)cc3)n2)cc1` (stereo not drawn) [Compound 42C], the pest or weed control at 50 µg/cm2, 50 µg/cm2 in experiment [1] and in experiment [2] was 50 to 100% each time.

Consider `CC(C)c1cc(F)ccc1N1/C(=N/N=C/c2ccc(-c3ncn(-c4ccc(OC(F)(F)F)cc4)n3)cc2)SCC1(C)O` (stereo not drawn) [Compound 258C], for which the pest or weed control at 50 µg/cm2, 50 µg/cm2 in experiment [1] and in experiment [2] was 50 to 100% each time.

These data come from patent publication US20160135464A1, “PESTICIDAL COMPOSITIONS AND PROCESSES RELATED THERETO” (Dow AgroSciences LLC, priority 2014, published 2016).
